The values below come from ChEMBL document CHEMBL5053545, “Iterative Structure-Based Optimization of Short Peptides Targeting the Bacterial Sliding Clamp” (J Med Chem, 2021).

Test [1] is described as follows: Binding affinity to Escherichia coli sliding clamp assessed as dissociation constant by ITC analysis. On the technique in general: ITC needs no label: the signal is the heat of the interaction.
For test [2], the system named is Escherichia coli. In words: Binding affinity to Escherichia coli sliding clamp assessed as gibbs free energy change by ITC analysis.
Test [3] has as its system Escherichia coli. In words: Binding affinity to Escherichia coli sliding clamp assessed as association rate constant by ITC analysis.
Test [4] has as its system Escherichia coli. Kind of test: Binding affinity to Escherichia coli sliding clamp assessed as dissociation rate constant by ITC analysis.
Test [5] can be described thus: Inhibition of SC-dependent DNA replication in Escherichia coli using pU118 DNA as substrate preincubated for 10 mins followed by substrate addition and measured after 6 mins by PAGE electrophoresis.
Test [6] has as its system Escherichia coli. Kind of test: Antimicrobial activity against Escherichia coli D22 at 128 ug/ml incubated 18 to 24 hrs by broth microdilution method. It is filed as functional, organism-based. The note with it: dose 128.0 µg/ml, time 18-24 hrs. (Dilution methods test growth across graded concentrations, often in twofold steps.)

The source made the active and inactive calls. The calls are words filed in the database; no cut-off is given here. *1 amine or outer side, *2 acyl side, *3 side chain or, on linkers, in order; H or OH if unused. Where a SMILES comes first, the peptide text is derived from it. [ ]: non-standard residue; d: D form. The star is where a group is joined. Acryloyl(3-(3-pyridyl),E) = O=C(/C=C/c1cccnc1)*; Phe(3,4-Cl2) = N[C@@H](Cc1ccc(Cl)c(Cl)c1)C(=O)O; Phe(3,4-F2) = N[C@@H](Cc1ccc(F)c(F)c1)C(=O)O; Oic = O=C(O)[C@@H]1C[C@@H]2CCCC[C@@H]2N1; Cinnamoyl(4-F) = O=C(/C=C/c1ccc(F)cc1)*; NH(4-MeO-phenyl) = COc1ccc(N*)cc1; Cha = N[C@@H](CC1CCCCC1)C(=O)O; NMeD = CN[C@@H](CC(=O)O)C(=O)O; X1 = O=C(/C=C/c1ccccc1)*; CO = O=C([*:1])[*:2]; Sar = CNCC(=O)O

For `CC(=O)N[C@@H](CCC(N)=O)C(=O)N[C@@H](CC1CCCCC1)C(=O)N[C@@H](CC(=O)O)C(=O)N[C@@H](CC(C)C)C(=O)N[C@@H](Cc1ccccc1)C(=O)O` (Ac-Q[Cha]DLF-OH), in test [1], the dissociation constant (Kd) – broadly, a measure of binding affinity in units of concentration – came to 194 nM. In addition, the deltaG in the test on Escherichia coli [2] was -9.2 kcal/mol. Also, the figures for the K with Escherichia coli [3] and in the test with Escherichia coli [4] were 4 10^4/M/s and 7.4 10^-3/s, respectively. Moreover, in test [5], inhibition was half-maximal at 3200 nM (IC50).

On to `CC(=O)N[C@@H](CCC(N)=O)C(=O)N[C@@H](CC1CCCCC1)C(=O)N[C@@H](CC(=O)O)C(=O)N[C@@H](CC(C)C)C(=O)N1[C@H](C(=O)N[C@@H](Cc2ccc(Cl)c(Cl)c2)C(=O)O)C[C@@H]2CCCC[C@@H]21` (Ac-Q[Cha]DL[Oic][Phe(3,4-Cl2)]-OH), for which the Kd in test [1] worked out at 39 nM. The deltaG in the test with Escherichia coli [2] was -10.1 kcal/mol. Besides, the figures for the K in the test with Escherichia coli [3] and in the test on Escherichia coli [4] were 6 10^4/M/s and 2.3 10^-3/s, respectively. Besides, in test [5], the IC50 (in general, the concentration that inhibits the measured activity by half) amounted to 150 nM. Also, the outcome in the test with Escherichia coli [6] was inactive.

On to `CC(=O)N[C@@H](CCC(N)=O)C(=O)N[C@@H](CC1CCCCC1)C(=O)N[C@@H](CC(=O)O)C(=O)N[C@@H](CC(C)C)C(=O)N(C)CC(=O)N[C@@H](CC(C)C)C(=O)O` (Ac-Q[Cha]DL[Sar]L-OH), for which, in test [1], the Kd is 583 nM. Further, the deltaG in the test on Escherichia coli [2] was -8.5 kcal/mol. Besides, the K in the test on Escherichia coli [3] is 4 10^4/M/s; in the test with Escherichia coli [4] it was 2.1 10^-2/s. Besides, in the test with Escherichia coli [6], the outcome was inactive.

`CC(C)C[C@H](NC(=O)[C@H](CC(=O)O)NC(=O)[C@H](CC1CCCCC1)NC(=O)[C@H](CCC(N)=O)NC(=O)/C=C/c1ccccc1)C(=O)N[C@@H](Cc1ccccc1)C(=O)O` (X1-Q[Cha]DLF-OH): the Kd in test [1] turned out to be 129 nM. Moreover, in the test with Escherichia coli [2], the deltaG is -9.4 kcal/mol. For the same compound, the results for the K in the test with Escherichia coli [3] and in the test on Escherichia coli [4] were 4.6 10^4/M/s and 6.5 10^-3/s, respectively. The outcome in the test on Escherichia coli [6] was inactive.

As for `CC(C)C[C@H](NC(=O)[C@H](CC(=O)O)NC(=O)[C@H](CC1CCCCC1)NC(=O)[C@H](CCC(N)=O)NC(=O)/C=C/c1cccnc1)C(=O)N[C@@H](Cc1ccccc1)C(=O)O` ({Acryloyl(3-(3-pyridyl),E)}-Q[Cha]DLF-OH), the Kd in test [1] was 156 nM. For the same compound, the deltaG with Escherichia coli [2] is -9.3 kcal/mol. In addition, the K in the test on Escherichia coli [3] is 4.6 10^4/M/s; with Escherichia coli [4], 7.4 10^-3/s. Besides, the result in the test on Escherichia coli [6] was inactive.

For `CC(C)C[C@H](NC(=O)[C@H](CC(=O)O)N(C)C(=O)[C@H](CC1CCCCC1)NC(=O)[C@H](CCC(N)=O)NC(=O)/C=C/c1cccnc1)C(=O)N1CCC[C@H]1C(=O)N[C@@H](Cc1ccccc1)C(=O)O` ({Acryloyl(3-(3-pyridyl),E)}-Q[Cha][NMeD]LPF-OH), the Kd in test [1] came to 35 nM. Besides, the deltaG in the test on Escherichia coli [2] is -10.2 kcal/mol. Besides, the K in the test with Escherichia coli [3] is 1.4 10^5/M/s; in the test on Escherichia coli [4] it was 5.2 10^-3/s. Besides, the result with Escherichia coli [6] was inactive.

Regarding `CC(C)C[C@H](NC(=O)[C@@H]1CCCN1C(=O)[C@H](CC(C)C)NC(=O)[C@H](CC(=O)O)N(C)C(=O)[C@H](CC1CCCCC1)NC(=O)[C@H](CCC(N)=O)NC(=O)/C=C/c1cccnc1)C(=O)O` ({Acryloyl(3-(3-pyridyl),E)}-Q[Cha][NMeD]LPL-OH), the Kd in test [1] was 177 nM. Also, the deltaG in the test on Escherichia coli [2] is -9.2 kcal/mol. Moreover, the K is 6.3 10^4/M/s with Escherichia coli [3] and 1.1 10^-2/s with Escherichia coli [4].

As for `CC(C)C[C@H](NC(=O)[C@H](CC(=O)O)N(C)C(=O)[C@H](CC1CCCCC1)NC(=O)[C@H](CCC(N)=O)NC(=O)/C=C/c1cccnc1)C(=O)N1[C@H](C(=O)N[C@@H](Cc2ccccc2)C(=O)O)C[C@@H]2CCCC[C@@H]21` ({Acryloyl(3-(3-pyridyl),E)}-Q[Cha][NMeD]L[Oic]F-OH), the dissociation constant (Kd) in test [1] was found to be 118 nM. Moreover, in the test with Escherichia coli [2], the deltaG was -9.5 kcal/mol. The values for the K with Escherichia coli [3] and in the test on Escherichia coli [4] were 4.7 10^4/M/s and 5.5 10^-3/s, respectively.

On to `CC(C)C[C@H](NC(=O)[C@H](CC(=O)O)N(C)C(=O)[C@H](CC1CCCCC1)NC(=O)[C@H](CCC(N)=O)NC(=O)/C=C/c1cccnc1)C(=O)N[C@@H](Cc1ccc(Cl)c(Cl)c1)C(=O)O` ({Acryloyl(3-(3-pyridyl),E)}-Q[Cha][NMeD]L[Phe(3,4-Cl2)]-OH), for which, in test [1], the Kd worked out at 46 nM. Further, the deltaG in the test with Escherichia coli [2] is -10.1 kcal/mol. For the same compound, the K in the test with Escherichia coli [3] is 1.1 10^5/M/s; in the test with Escherichia coli [4], 5.5 10^-3/s. Moreover, in the test on Escherichia coli [6], the outcome was inactive.

As for `CC(C)C[C@H](NC(=O)[C@H](CC(=O)O)NC(=O)[C@H](CC1CCCCC1)NC(=O)[C@H](CCC(N)=O)NC(=O)/C=C/c1ccc(F)cc1)C(=O)N[C@@H](Cc1ccccc1)C(=O)O` ({Cinnamoyl(4-F)}-Q[Cha]DLF-OH), in test [1], the dissociation constant Kd was determined as 144 nM. Also, the deltaG in the test with Escherichia coli [2] was -9.3 kcal/mol. Besides, the figures for the K with Escherichia coli [3] and in the test on Escherichia coli [4] were 4.6 10^4/M/s and 6.3 10^-3/s, respectively.

For `CC(C)C[C@H](NC(=O)[C@H](CC(=O)O)N(C)C(=O)[C@H](CC1CCCCC1)NC(=O)[C@H](CCC(N)=O)NC(=O)/C=C/c1ccc(F)cc1)C(=O)N[C@@H](Cc1ccc(F)c(F)c1)C(=O)O` ({Cinnamoyl(4-F)}-Q[Cha][NMeD]L[Phe(3,4-F2)]-OH), in test [1], the Kd turned out to be 99 nM. Besides, in the test with Escherichia coli [2], the deltaG is -9.6 kcal/mol. Besides, the K is 5.1 10^4/M/s in the test with Escherichia coli [3] and 5.7 10^-3/s with Escherichia coli [4].

In the case of `COc1ccc(NC(=O)N[C@@H](CCC(N)=O)C(=O)N[C@@H](CC2CCCCC2)C(=O)N[C@@H](CC(=O)O)C(=O)N[C@@H](CC(C)C)C(=O)N[C@@H](Cc2ccccc2)C(=O)O)cc1` ({NH(4-MeO-phenyl)-CO}-Q[Cha]DLF-OH), in test [1], the Kd turned out to be 73 nM. Moreover, in the test on Escherichia coli [2], the deltaG is -9.8 kcal/mol. Moreover, the K in the test on Escherichia coli [3] is 4 10^4/M/s; in the test with Escherichia coli [4], 2.8 10^-3/s.

As to `COc1ccc(NC(=O)N[C@@H](CCC(N)=O)C(=O)N[C@@H](CC2CCCCC2)C(=O)N(C)[C@@H](CC(=O)O)C(=O)N[C@@H](CC(C)C)C(=O)N[C@@H](Cc2ccc(Cl)c(Cl)c2)C(=O)O)cc1` ({NH(4-MeO-phenyl)-CO}-Q[Cha][NMeD]L[Phe(3,4-Cl2)]-OH), in test [1], the Kd is 266 nM. Further, the deltaG with Escherichia coli [2] is -9 kcal/mol. Moreover, the figures for the K in the test with Escherichia coli [3] and with Escherichia coli [4] were 4.2 10^4/M/s and 1.1 10^-3/s, respectively.
